Experimental data from patent publication US12662481B2, “Substituted 2-morpholinopyridine derivatives as ATR kinase inhibitors” (Repare Therapeutics Inc., priority 2019, dated 2026).
Read-outs that look alike come from different tables or passages of the source.

Columns and labels:
[1] = biological target: ATR/ATRIP (Homo sapiens, UniProt Q13535); assay: ATR/ATRIP enzymatic assay (AlphaScreen, phosphorylation of p53)
Method: Detection of ATR kinase activity utilized the AlphaScreen system to measure the phosphorylation of the substrate protein p53. […] Plates were incubated at room temperature in the dark for 4 hours and read on a BMG Polarstar using AlphaScreen dedicated filters. […] IC50 values were determined using a 4-parameter fit algorithm.

[2] = tested on: ATR (CHK1 phosphorylation at Ser345 in HeLa S3 cells); assay: ATR assay in HeLa S3 cells (CHK1 p-Ser345 AlphaScreen SureFire, gemcitabine); format: cell-based; conditions: HeLa S3 whole cell assay, 3.5 to 4 hours
Method: Media was then replaced by 20 μL per well Opti-MEM no phenol red and 5 μL of serial diluted compounds were added to the assay plate for a final DMSO concentration of 0.5%. […] The plate was incubated at 37° C., 5% CO2 for 3.5 to 4 hours.

[3] = Homo sapiens, gemcitabine 1.5 μM

Chain of ATR/ATRIP (Q13535 whole entry): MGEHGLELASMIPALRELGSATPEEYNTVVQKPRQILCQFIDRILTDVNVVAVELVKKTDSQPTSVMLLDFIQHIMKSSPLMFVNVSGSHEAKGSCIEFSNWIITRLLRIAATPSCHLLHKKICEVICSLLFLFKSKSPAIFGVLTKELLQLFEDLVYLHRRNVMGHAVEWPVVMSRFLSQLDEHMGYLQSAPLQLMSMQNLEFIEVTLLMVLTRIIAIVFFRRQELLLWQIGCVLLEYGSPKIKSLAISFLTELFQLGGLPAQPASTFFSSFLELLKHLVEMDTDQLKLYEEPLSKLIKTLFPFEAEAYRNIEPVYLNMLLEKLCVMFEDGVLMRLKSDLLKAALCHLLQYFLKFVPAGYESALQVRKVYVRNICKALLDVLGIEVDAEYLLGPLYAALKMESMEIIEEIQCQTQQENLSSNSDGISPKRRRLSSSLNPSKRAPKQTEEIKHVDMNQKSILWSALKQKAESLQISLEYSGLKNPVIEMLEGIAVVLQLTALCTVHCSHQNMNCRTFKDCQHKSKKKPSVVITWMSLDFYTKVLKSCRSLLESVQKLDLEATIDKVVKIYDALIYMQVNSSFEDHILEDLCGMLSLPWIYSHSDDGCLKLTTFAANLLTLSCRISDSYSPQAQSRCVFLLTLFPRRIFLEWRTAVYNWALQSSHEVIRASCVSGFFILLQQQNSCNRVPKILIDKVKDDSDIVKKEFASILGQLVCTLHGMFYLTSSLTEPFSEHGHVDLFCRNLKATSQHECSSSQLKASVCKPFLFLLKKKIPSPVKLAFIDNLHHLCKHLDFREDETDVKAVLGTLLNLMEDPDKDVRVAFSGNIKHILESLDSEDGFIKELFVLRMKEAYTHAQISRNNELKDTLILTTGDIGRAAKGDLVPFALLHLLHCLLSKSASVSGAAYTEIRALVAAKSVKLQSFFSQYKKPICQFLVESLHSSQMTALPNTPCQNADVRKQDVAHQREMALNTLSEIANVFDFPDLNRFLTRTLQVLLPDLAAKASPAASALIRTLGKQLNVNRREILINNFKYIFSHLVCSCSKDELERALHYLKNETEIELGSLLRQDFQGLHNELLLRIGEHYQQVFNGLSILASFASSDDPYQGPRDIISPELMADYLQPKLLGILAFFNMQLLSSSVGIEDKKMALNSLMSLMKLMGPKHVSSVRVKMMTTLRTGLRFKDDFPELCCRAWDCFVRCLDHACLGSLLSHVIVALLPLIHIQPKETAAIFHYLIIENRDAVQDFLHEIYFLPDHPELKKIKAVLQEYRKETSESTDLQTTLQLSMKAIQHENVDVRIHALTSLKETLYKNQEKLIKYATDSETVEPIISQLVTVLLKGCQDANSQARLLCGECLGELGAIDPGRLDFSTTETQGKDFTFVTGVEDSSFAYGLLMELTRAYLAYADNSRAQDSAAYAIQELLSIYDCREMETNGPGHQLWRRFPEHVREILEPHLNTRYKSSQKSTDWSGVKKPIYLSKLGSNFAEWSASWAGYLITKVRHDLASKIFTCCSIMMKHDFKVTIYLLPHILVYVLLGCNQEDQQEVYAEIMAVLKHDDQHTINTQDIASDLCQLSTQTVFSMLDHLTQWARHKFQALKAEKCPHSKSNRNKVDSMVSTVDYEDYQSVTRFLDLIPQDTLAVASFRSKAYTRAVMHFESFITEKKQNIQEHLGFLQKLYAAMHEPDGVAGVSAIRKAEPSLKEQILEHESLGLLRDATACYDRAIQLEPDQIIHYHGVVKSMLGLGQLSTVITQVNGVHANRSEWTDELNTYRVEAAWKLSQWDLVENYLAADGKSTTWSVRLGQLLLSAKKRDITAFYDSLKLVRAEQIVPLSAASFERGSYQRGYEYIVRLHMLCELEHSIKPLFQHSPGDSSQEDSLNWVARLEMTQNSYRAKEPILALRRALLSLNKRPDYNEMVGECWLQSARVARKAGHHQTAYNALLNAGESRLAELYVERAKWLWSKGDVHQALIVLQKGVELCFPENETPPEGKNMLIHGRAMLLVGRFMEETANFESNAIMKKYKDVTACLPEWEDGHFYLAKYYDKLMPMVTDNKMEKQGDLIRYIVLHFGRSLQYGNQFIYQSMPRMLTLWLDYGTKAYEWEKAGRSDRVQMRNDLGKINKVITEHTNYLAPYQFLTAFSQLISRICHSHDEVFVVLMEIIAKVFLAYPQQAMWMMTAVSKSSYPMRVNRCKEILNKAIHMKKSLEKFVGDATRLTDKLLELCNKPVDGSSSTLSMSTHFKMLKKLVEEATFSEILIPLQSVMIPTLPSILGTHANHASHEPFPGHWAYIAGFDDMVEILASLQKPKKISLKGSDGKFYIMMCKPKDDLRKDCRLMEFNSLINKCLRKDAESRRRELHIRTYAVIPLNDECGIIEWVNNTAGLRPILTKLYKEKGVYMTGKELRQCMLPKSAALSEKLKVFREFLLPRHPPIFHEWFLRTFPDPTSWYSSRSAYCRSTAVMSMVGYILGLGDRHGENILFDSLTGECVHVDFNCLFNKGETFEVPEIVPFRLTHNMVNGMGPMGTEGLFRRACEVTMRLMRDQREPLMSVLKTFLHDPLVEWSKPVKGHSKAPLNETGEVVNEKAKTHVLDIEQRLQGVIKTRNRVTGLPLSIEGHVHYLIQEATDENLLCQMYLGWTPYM
Chain of ATR/ATRIP (Q8WXE1 whole entry partner): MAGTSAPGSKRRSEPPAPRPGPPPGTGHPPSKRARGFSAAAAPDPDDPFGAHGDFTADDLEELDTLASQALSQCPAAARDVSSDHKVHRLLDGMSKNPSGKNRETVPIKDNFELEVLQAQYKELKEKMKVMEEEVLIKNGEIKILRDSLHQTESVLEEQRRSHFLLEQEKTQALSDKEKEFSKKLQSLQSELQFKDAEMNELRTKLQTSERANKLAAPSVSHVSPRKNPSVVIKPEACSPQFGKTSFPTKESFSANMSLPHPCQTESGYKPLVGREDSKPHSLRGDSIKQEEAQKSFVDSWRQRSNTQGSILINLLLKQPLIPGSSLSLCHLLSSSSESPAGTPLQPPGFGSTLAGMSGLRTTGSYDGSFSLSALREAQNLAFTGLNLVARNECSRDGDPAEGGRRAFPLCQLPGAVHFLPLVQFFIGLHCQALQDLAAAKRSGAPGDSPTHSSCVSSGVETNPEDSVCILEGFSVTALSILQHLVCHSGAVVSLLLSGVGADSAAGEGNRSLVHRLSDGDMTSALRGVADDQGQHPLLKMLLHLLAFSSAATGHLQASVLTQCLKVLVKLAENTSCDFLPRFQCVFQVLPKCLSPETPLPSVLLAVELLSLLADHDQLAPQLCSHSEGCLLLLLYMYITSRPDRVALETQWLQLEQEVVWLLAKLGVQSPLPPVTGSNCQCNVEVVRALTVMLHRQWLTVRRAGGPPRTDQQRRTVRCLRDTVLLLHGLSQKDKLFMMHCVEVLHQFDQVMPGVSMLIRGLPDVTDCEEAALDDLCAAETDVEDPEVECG

SMILES	IC50 [2, 3] [nM]	also measured
Cc1ccncc1-c1cc(N2CCOC[C@H]2C)nc2c1ccn2-c1cc[nH]n1 [Compound 9]		IC50 [1]: 371 nM
CC(C#N)c1cc(N2CCOC[C@H]2C)nc2c1cnn2-c1cc[nH]n1 (some centres unmarked) [Compound 47]		IC50 ([1]; read-out: ATR IC50, recombinant ATR/ATRIP 0.63 nM, 25 nM GST-p53, 3 μM ATP, 1 hour room temperature): 12 nM
COC1(c2cc(N3CCOC[C@H]3C)nc3c2cnn3-c2cc[nH]n2)CCSCC1 [Compound 147]	0.8	
C[C@@H]1COCCN1c1cc(-c2cccnc2C(F)(F)F)c2c(=O)[nH]n(-c3ccn[nH]3)c2n1 [Compound 151]		IC50 ([2]; gemcitabine […]): 9.1 nM
C[C@@H]1COCCN1c1cc([C@]2(O)C[C@H]3CC[C@@H](C2)O3)c2cnn(-c3cc[nH]n3)c2n1 [Compound 121]	0.9	
C[C@@H]1COCCN1c1cc(N2CCOCC2=O)c2cnn(-c3cc[nH]n3)c2n1 [Compound 134]	41	
C[C@@H]1COCCN1c1cc(-c2nncs2)c2cnn(-c3cc[nH]n3)c2n1 [Compound 33]		IC50 [1]: 154 nM
C[C@@H]1COCCN1c1cc(-c2ccccc2S(N)(=O)=O)c2cnn(-c3cc[nH]n3)c2n1 [Compound 126, (R)-2-(6-(3-methylmorpholino)-1-(1H-pyrazol-3-yl)-1H-pyrazolo[3,4-b]pyridin-4-yl)benzenesulfonamide]	17	
